Test results taken from publication PMC5046105, “Improved affinity at the cost of decreased specificity: a recurring theme in PDZ-peptide interactions” (Scientific Reports, 2016).
Where a chain is given by its changes, count along the chain named. Ends that are not written are not given here.

T1: pWT PDZ2 (pseudo wild type SAP97 PDZ2, I342W/C378A) (Homo sapiens, UniProt Q12959, C378A/I342W)
T1 construct: constituting SAP97 residues 311–407 and the mutations I342W and C372A; His-tagged lipoyl protein domain (N, cleaved yes); made in house
T1 sequence (Q12959 311-407 I342W/C378A): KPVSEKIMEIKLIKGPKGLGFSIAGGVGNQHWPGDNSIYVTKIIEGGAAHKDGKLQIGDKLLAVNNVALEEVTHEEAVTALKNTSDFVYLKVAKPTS

T2: pWT PDZ2 K392M (Homo sapiens, UniProt Q12959, C378A/I342W/K392M)
T2 construct: constituting SAP97 residues 311–407 and the mutations I342W and C372A; His-tagged lipoyl protein domain (N, cleaved yes); made in house
T2 sequence (Q12959 311-407 I342W/C378A/K392M): T1 sequence (Q12959 311-407 I342W/C378A) with K82M

T3: pWT PDZ2 L391F (Homo sapiens, UniProt Q12959, C378A/I342W/L391F)
T3 construct: constituting SAP97 residues 311–407 and the mutations I342W and C372A; His-tagged lipoyl protein domain (N, cleaved yes); made in house
T3 sequence (Q12959 311-407 I342W/C378A/L391F): T1 sequence (Q12959 311-407 I342W/C378A) with L81F

T4: PDZØ9 (pWT SAP97 PDZ2 L391F/K392M) (Homo sapiens, UniProt Q12959, C378A/I342W/K392M/L391F)
T4 construct: constituting SAP97 residues 311–407 and the mutations I342W and C372A; His-tagged lipoyl protein domain (N, cleaved yes); made in house
T4 sequence (Q12959 311-407 I342W/C378A/L391F/K392M): T1 sequence (Q12959 311-407 I342W/C378A) with L81F, K82M

B1: RSISTDV peptide (C-terminus of protein FAM163B) (peptide)
peptide: Ac-RSISTDV
B2: KRKETLV peptide (C-terminus of neuroepithelial cell-transforming gene 1 protein, Net1) (peptide)
peptide: Ac-KRKETLV

Experiments:
[1] = molecular target: T1, pWT PDZ2 (pseudo wild type SAP97 PDZ2, I342W/C378A); assay: Stopped-flow binding kinetics, peptide with pWT PDZ2; conditions: for Kd: Kd = koff/kon, ± propagated standard error; for Kd / koff: pH 7.5, 10 °C; for kon: Trp342 fluorescence, 1 µM PDZ, peptide 2–40 µM, N-acetylated peptide, 50 mM potassium phosphate pH 7.5, 10 °C; for kon / koff: value ± standard error; for koff: displacement of pre-formed complex (1 µM PDZ, 2 µM peptide) with 100 and 150 µM dansylated RRRETQV peptide
Method: (§1) The basic experimental parameters determined were the rate constants of association (kon) and dissociation (koff) for each peptide and for all PDZ variants, respectively, in a procedure described in Fig. 2 for the interaction between PDZØ9 and the EKKHTLL peptide as an example.
(§2) Figure 2 Determination of the two rate constants kon and koff for PDZØ9 binding to the EKKHTLL peptide. kon and koff were determined in separate experiments using stopped-flow spectroscopy and monitoring the change in Trp fluorescence upon binding. (a) The experimental trace was obtained by averaging of three individual experiments in which 11 μM of the EKKHTLL peptide was mixed with 1 μM PDZØ9. The trace was fitted to a single exponential function to obtain the observed rate constant, kobs. […] (c) In a displacement reaction a pre-formed complex between PDZØ9 (1 μM) and the EKKHTLL peptide (2 μM) was mixed with a large excess of dansyl-labeled peptide corresponding to the C-terminal […] of HPV18 E6 (150 μM). […] At high concentrations of dansylated peptide, none of the dissociated EKKHTLL will re-bind, and fitting to a single exponential function returns a kobs value which is equal to the dissociation rate constant, koff, of the pre-formed complex.
(§3) All of the stopped-flow experiments conducted in order to measure the rate constants for the peptide/PDZ interactions, were performed on an SX-20 MV stopped-flow spectrometer (Applied Photophysics Leatherhead, UK) at 10 °C in 50 mM potassium phosphate buffer, pH 7.5. Fluorescence was monitored using the change in emission of Trp342 in the PDZ variants (excitation at 280 nm; emission at 330 ± 30 nm). The peptides were N-acetylated (Ontores Biotechnologies) and the concentration of the respective stock solution was determined with either absorbance, quantitative amino acid analysis or direct detect (EMD Millipore). The rate constants of association, kon, and dissociation, koff, were determined in separate experiments. […] For each PDZ variant the kobs values were plotted versus the concentration of peptide and fitted to the general equation for a reversible bimolecular interaction[38][39] from which kon was derived. The koff was measured in a displacement experiment in which a pre-formed complex of PDZ variant (1 μM) and peptide (2 μM) was mixed with high concentrations of a dansylated RRRETQV-peptide (100, and 150 μM), which competes with the unlabelled peptide for binding to the PDZ. […] The kobs value at high peptide concentration is equal to the overall koff value, as described previously.

pWT PDZ2 K392M = molecular target: T2, pWT PDZ2 K392M; assay: Stopped-flow binding kinetics, peptide with pWT PDZ2 K392M; conditions: for Kd: Kd = koff/kon, ± propagated standard error; for Kd / koff: pH 7.5, 10 °C; for kon: Trp342 fluorescence, 1 µM PDZ, peptide 2–40 µM, N-acetylated peptide, 50 mM potassium phosphate pH 7.5, 10 °C, value ± standard error (EKKHTLL: mean of two experiments); for koff: displacement of pre-formed complex (1 µM PDZ, 2 µM peptide) with 100 and 150 µM dansylated RRRETQV peptide, value ± standard error
Method: as §1, §2, §3

pWT PDZ2 L391F = molecular target: T3, pWT PDZ2 L391F; assay: Stopped-flow binding kinetics, peptide with pWT PDZ2 L391F; conditions: for Kd: Kd = koff/kon, ± propagated standard error; for Kd / koff: pH 7.5, 10 °C; for kon: Trp342 fluorescence, 1 µM PDZ, peptide 2–40 µM, N-acetylated peptide, 50 mM potassium phosphate pH 7.5, 10 °C; for kon / koff: value ± standard error; for koff: displacement of pre-formed complex (1 µM PDZ, 2 µM peptide) with 100 and 150 µM dansylated RRRETQV peptide
Method: as §1, §2, §3

[2] = molecular target: T4, PDZØ9 (pWT SAP97 PDZ2 L391F/K392M); assay: Stopped-flow binding kinetics, peptide with PDZØ9; conditions: for Kd: Kd = koff/kon, ± propagated standard error; for Kd / koff / kon: stopped-flow; for Kd / koff: pH 7.5, 10 °C; for koff: displacement of pre-formed complex (1 µM PDZ, 2 µM peptide) with 100 and 150 µM dansylated RRRETQV peptide; for koff / kon: value ± standard error; for kon: Trp342 fluorescence, 1 µM PDZ, peptide 2–40 µM, N-acetylated peptide, 50 mM potassium phosphate pH 7.5, 10 °C
Method: as §1, §2, §3

[3] = molecular target: PDZØ9, engineered variant (L391F/K392M) of pWT SAP97 PDZ2 (human) (UniProt Q12959); assay: stopped-flow spectroscopy
[4] = molecular target: Pseudo wild type SAP97 PDZ2 (second PDZ domain of synapse associated protein 97, I342W/C378A) (human) (UniProt Q12959); assay: stopped-flow spectroscopy
pWT PDZ2 K392M (human) = pWT PDZ2 K392M (human) (UniProt Q12959); assay: stopped-flow spectroscopy
pWT PDZ2 L391F (human) = pWT PDZ2 L391F (human) (UniProt Q12959); assay: stopped-flow spectroscopy
Sequence of pWT PDZ2 L391F (human) (Q12959 311-407, stated change not applied): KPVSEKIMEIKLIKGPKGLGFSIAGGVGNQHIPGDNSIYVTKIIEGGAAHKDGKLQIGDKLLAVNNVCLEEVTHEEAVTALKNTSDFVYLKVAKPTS

Sequence of PDZØ9, engineered variant (L391F/K392M) of pWT SAP97 PDZ2 (human) (Q12959 311-407, stated change not applied): as the sequence (Q12959 311-407, stated change not applied) above
Sequence of pWT PDZ2 K392M (human) (Q12959 311-407, stated change not applied): as the sequence (Q12959 311-407, stated change not applied) above

Molecule | Kd [1] [nM] | kon [1] [M⁻¹ s⁻¹] | koff [1] [s⁻¹] | Kd (pWT PDZ2 K392M) [nM] | kon (pWT PDZ2 K392M) [M⁻¹ s⁻¹] | koff (pWT PDZ2 K392M) [s⁻¹] | Kd (pWT PDZ2 L391F) [nM] | kon (pWT PDZ2 L391F) [M⁻¹ s⁻¹] | koff (pWT PDZ2 L391F) [s⁻¹] | Kd [2] [nM] | koff [2] [s⁻¹] | kon [2] [M⁻¹ s⁻¹] | also measured
Ac-NSKETVV [NSKETVV] | 660 ± 7 | 1.3e+07 ± 100000 | 8.6 ± 0.07 | 790 ± 10 | 9.7e+06 ± 70000 | 7.7 ± 0.18 | 150 ± 1 | 1.3e+07 ± 90000 | 1.9 ± 0.01 | 160 ± 2 | 1.6 ± 0.01 | 1e+07 ± 70000 | 
Ac-VSKETPL [VSKETPL] | 3900 ± 200 | 4e+07 ± 2.2e+06 | 154 ± 3 | 6300 ± 600 | 2.4e+07 ± 2.2e+06 | 150 ± 3 | 800 ± 20 | 1.1e+07 ± 100000 | 8.8 ± 0.2 | 750 ± 20 | 6.3 ± 0.2 | 8.4e+06 ± 60000 | 
Ac-KRKETLV [KRKETLV] | 470 ± 6 | 6.4e+06 ± 60000 | 3 ± 0.03 | 470 ± 2 | 7.2e+06 ± 20000 | 3.4 ± 0.01 | 80 ± 1 | 7.4e+06 ± 60000 | 0.6 ± 0.005 | 80 ± 1 | 0.6 ± 0.005 | 8e+06 ± 60000 | 
Ac-RRRETQV [RRRETQV, reference compound] | 400 ± 5 | 8e+06 ± 40000 | 3.2 ± 0.04 | 370 ± 3 | 9e+06 ± 40000 | 3.3 ± 0.02 | 70 ± 1 | 8.7e+06 ± 40000 | 0.6 ± 0.01 | 60 ± 2 | 0.6 ± 0.015 | 9.8e+06 ± 50000 | 
Ac-EKKHTLL [EKKHTLL] | 9300 ± 400 | 1.2e+07 ± 500000 | 112 ± 1.2 | 14000 ± 2000 | 1.1e+07 ± 1.7e+06 | 157 ± 2 | 650 ± 7 | 1.1e+07 ± 80000 | 7.1 ± 0.05 | 560 ± 5 | 7.9 ± 0.04 | 1.4e+07 ± 100000 | 
Ac-RSISTDV [RSISTDV] | 1200 ± 30 | 2.1e+07 ± 500000 | 26 ± 0.3 | 1800 ± 40 | 1.7e+07 ± 300000 | 31 ± 0.3 | 180 ± 3 | 2.4e+07 ± 300000 | 4.3 ± 0.05 | 250 ± 5 | 4.3 ± 0.06 | 1.7e+07 ± 200000 | 
dansyl-labeled peptide: dansyl-labeled peptide corresponding to the C-terminal six residues of HPV18 E6, competitor in displacement experiments (RRRETQV; also: dansyl label, position not given here) [reference compound] |  |  |  |  |  |  |  |  |  |  |  |  | kobs, binding of free PDZØ9 to the dansyl-labeled peptide ([2]; 150 μM dansyl-labeled peptide, initial part of displacement trace): ~1000 s⁻¹
Ac-YRRESAI [YRRESAI] | 4600 ± 100 | 1.9e+07 ± 500000 | 87 ± 0.5 | 4200 ± 100 | 2.5e+07 ± 700000 | 105 ± 0.5 | 790 ± 10 | 1.9e+07 ± 100000 | 15 ± 0.2 | 770 ± 10 | 17 ± 0.2 | 2.2e+07 ± 200000 | 
Ac-SARSTDV [SARSTDV] | 1600 ± 30 | 1.6e+07 ± 200000 | 26 ± 0.3 | 2100 ± 30 | 1.2e+07 ± 100000 | 25 ± 0.3 | 220 ± 3 | 1.8e+07 ± 100000 | 4 ± 0.05 | 260 ± 5 | 3.4 ± 0.06 | 1.3e+07 ± 100000 | 
Ac-PGKETQL [PGKETQL] | 2800 ± 100 | 1.8e+07 ± 600000 | 51 ± 1.8 | 2700 ± 200 | 1.8e+07 ± 600000 | 48 ± 2.3 | 250 ± 4 | 2e+07 ± 300000 | 5 ± 0.02 | 240 ± 4 | 3.9 ± 0.03 | 1.6e+07 ± 200000 | 
Ac-TSRETDL [TSRETDL] | 2200 ± 70 | 3.3e+07 ± 1.1e+06 | 71 ± 0.5 | 4100 ± 200 | 1.5e+07 ± 500000 | 62 ± 0.9 | 210 ± 6 | 1.8e+07 ± 400000 | 3.8 ± 0.06 | 170 ± 4 | 2.6 ± 0.04 | 1.5e+07 ± 200000 | 
B1 |  |  |  |  |  |  |  |  |  |  |  |  | koff [3]: 4.3 s⁻¹; kon [3]: 1.7e+07 M⁻¹ s⁻¹; koff [4]: 26 s⁻¹; kon [4]: 2.1e+07 M⁻¹ s⁻¹; koff (pWT PDZ2 K392M (human)): 31 s⁻¹; kon (pWT PDZ2 K392M (human)): 1.7e+07 M⁻¹ s⁻¹; koff (pWT PDZ2 L391F (human)): 4.3 s⁻¹; kon (pWT PDZ2 L391F (human)): 2.4e+07 M⁻¹ s⁻¹
B2 |  |  |  |  |  |  |  |  |  |  |  |  | Kd [3]: 80 nM; koff [3]: 0.6 s⁻¹; kon [3]: 8e+06 M⁻¹ s⁻¹; Kd [4]: 470 nM; koff [4]: 3 s⁻¹; kon [4]: 6.4e+06 M⁻¹ s⁻¹; Kd (pWT PDZ2 K392M (human)): 470 nM; koff (pWT PDZ2 K392M (human)): 3.4 s⁻¹; kon (pWT PDZ2 K392M (human)): 7.2e+06 M⁻¹ s⁻¹; Kd (pWT PDZ2 L391F (human)): 80 nM; koff (pWT PDZ2 L391F (human)): 0.6 s⁻¹; kon (pWT PDZ2 L391F (human)): 7.4e+06 M⁻¹ s⁻¹
